How the values were obtained:
Prothrombin = Prothrombin (Homo sapiens, UniProt P00734); assay: Compound was tested for inhibitory activity against Thrombin
Plasminogen = Plasminogen (Homo sapiens, UniProt P00747); assay: Compound was tested for inhibitory activity against Plasmin
Coagulation factor VII = molecular target: T1, Coagulation factor VII (Homo sapiens, UniProt P08709); assay: Compound was tested for inhibitory activity against Coagulation factor VIIa
T1 sequence (P08709 whole entry): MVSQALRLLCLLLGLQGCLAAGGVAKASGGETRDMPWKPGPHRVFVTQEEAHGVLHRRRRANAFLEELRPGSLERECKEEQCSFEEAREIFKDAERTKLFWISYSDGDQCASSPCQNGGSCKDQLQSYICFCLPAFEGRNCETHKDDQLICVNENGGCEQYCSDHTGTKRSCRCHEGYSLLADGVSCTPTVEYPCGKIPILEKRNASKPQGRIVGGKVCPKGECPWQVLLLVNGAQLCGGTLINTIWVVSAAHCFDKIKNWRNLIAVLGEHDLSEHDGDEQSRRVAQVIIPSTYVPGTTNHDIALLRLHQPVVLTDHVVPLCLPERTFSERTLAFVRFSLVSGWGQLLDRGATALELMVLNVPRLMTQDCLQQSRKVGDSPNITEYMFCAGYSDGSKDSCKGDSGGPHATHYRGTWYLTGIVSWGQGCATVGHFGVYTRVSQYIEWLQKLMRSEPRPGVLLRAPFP

Coagulation factor XI [1] = molecular target: T2, Coagulation factor XI (Homo sapiens, UniProt P03951); assay: Compound was tested for inhibitory activity against Coagulation factor XIa
T2 sequence (P03951 19-387 limits assumed): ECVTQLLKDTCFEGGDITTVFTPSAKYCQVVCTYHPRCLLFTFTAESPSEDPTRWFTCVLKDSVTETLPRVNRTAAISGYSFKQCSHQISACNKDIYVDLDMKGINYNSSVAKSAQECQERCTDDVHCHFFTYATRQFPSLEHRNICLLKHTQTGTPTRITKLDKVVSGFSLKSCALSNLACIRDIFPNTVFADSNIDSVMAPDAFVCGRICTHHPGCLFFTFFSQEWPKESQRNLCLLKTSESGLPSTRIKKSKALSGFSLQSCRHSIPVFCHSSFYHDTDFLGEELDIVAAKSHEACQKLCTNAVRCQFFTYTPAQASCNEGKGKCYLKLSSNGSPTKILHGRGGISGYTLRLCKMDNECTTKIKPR
T2 sequence (P03951 388-625 limits assumed): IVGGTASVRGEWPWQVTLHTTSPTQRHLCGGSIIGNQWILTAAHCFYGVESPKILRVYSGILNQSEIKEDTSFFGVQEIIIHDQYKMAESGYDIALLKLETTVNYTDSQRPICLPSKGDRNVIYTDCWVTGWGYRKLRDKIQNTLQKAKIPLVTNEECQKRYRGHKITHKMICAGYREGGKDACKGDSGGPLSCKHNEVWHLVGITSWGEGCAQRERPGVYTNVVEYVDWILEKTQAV

Coagulation factor XI [2] = molecular target: T2, Coagulation factor XI; assay: Compound was tested for inhibitory activity against Coagulation factor XIa at 8 uM

Chain of Plasminogen (P00747 97-580 limits assumed): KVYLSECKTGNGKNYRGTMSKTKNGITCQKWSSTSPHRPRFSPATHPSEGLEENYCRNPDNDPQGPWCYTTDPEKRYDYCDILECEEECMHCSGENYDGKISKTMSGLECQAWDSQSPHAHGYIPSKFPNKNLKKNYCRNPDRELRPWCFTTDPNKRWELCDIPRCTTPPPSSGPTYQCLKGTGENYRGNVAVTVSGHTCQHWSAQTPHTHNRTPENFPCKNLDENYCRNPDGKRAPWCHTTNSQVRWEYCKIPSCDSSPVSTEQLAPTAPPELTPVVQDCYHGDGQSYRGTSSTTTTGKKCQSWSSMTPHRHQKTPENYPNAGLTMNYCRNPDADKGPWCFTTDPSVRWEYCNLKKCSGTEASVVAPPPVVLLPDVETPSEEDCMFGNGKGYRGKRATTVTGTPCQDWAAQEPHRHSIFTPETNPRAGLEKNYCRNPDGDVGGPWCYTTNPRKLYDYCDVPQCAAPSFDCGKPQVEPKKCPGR
Chain of Plasminogen (P00747 581-810 limits assumed): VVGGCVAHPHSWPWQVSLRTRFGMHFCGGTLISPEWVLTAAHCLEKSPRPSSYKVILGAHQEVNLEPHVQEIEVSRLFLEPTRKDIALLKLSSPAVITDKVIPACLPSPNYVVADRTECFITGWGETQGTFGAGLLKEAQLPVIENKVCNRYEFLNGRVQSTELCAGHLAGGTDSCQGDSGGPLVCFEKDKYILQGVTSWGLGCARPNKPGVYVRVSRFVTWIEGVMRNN

SMILES	IC50 (Prothrombin) [µM]	IC50 (Plasminogen) [µM]	IC50 (Coagulation factor VII) [µM]	IC50 (Coagulation factor XI [1]) [µM]	inhibition (Coagulation factor XI [2]) [%]
CC[C@@H]1CC(C(=O)NCc2ccc(C(=N)N)cc2)N2C(=O)[C@](N)(CC3=CCCCC3)C[C@H](OC)[C@H]12 (stereo partly specified)	0.17	141	4.6	> 133	
N=C(N)c1ccc(CNC(=O)C2CC[C@H]3CC[C@@](O)(Cc4ccccc4)C(=O)N23)cc1 (stereo partly specified)			1.1		78
C[C@]1(O)CC[C@@H]2CCC(C(=O)NCc3ccc(C(=N)N)cc3)N2C1=O (stereo partly specified)	0.27		> 10		20
CC[C@@H]1CC(C(=O)NCc2ccc(C(=N)N)cc2)N2C(=O)[C@@](N)(CC3=CCCCC3)C[C@H](OC)[C@H]12 (stereo partly specified)			109		

More lines, main results first:

IC50 (Prothrombin) [µM]	IC50 (Plasminogen) [µM]	IC50 (Coagulation factor VII) [µM]	IC50 (Coagulation factor XI [1]) [µM]	SMILES	inhibition (Coagulation factor XI [2]) [%]
0.38	37	1.6	> 133	C=C(C)C[C@]1(N)C[C@H](OC)[C@@H]2[C@H](CC)CC(C(=O)NCc3ccc(C(=N)N)cc3)N2C1=O (stereo partly specified)	
	11	0.42	> 133	CC[C@@H]1CC(C(=O)NCc2ccc(C(=N)N)cc2)N2C(=O)[C@](N)(Cc3ccccc3)C[C@H](OC)[C@H]12 (stereo partly specified)	
0.11	71	0.52	35	CO[C@H]1C[C@@](O)(Cc2ccccc2)C(=O)N2C(C(=O)NCc3ccc(C(=N)N)cc3)CC[C@@H]12 (stereo partly specified)	

— ChEMBL document CHEMBL1136036, “Targeting thrombin and factor VIIa: design, synthesis, and inhibitory activity of functionally relevant indolizidinones” (Bioorg Med Chem Lett, 2002)
